Experiments:
Format in all cases: cell-based, human
[1] = tested on: PLB-985 cells; experiment: PtdSer exposure (Cy5-Annexin V staining) of DAC-treated PLB-985 cells after UV irradiation; conditions: PLB-985 cells treated with DAC for five days, Cy5-Annexin V and PI
Description: Apoptosis was induced by treating cells with FasL or staurosporine, or exposing them to UV. In brief, 5×10^5 cells in 500 μl of culture medium were incubated at 37° C. with 10-400 units/ml hFasL for 1.2-2.0 h or with 10 μM staurosporine for 1.5-4.0 h. For UV exposure, 1×10^6 cells in 2 ml of PBS were exposed to 500-2000 J/m UV radiation (254 nm) in a StrataLinker UV oven (Stratagene), and incubated at 37° C. for 1.5-2.0 h in 4 ml of RPMI1640 containing 10% FCS. To monitor Ca^2÷-ionophore-induced PtdSer exposure, cells (5×10^5 cells) in 500 μl of Annexin V staining buffer (10 mM Hepes-NaOH buffer [pH7.4] containing 140 mM NaCl and 2.5 mM CaCl2) were incubated at 20° C. for 3 min, treated with 3.0-10 μM A23187, and analyzed with FACSAria at 20° C.
To detect PtdSer and PtdEtn exposed on the cell surface, cells were stained on ice for 15 min with 2500-5000-fold diluted Cy5-Annexin V (Biovision) or 800-fold diluted-biotin-Ro09-0198^66 followed by 1.0 μg/ml APC-streptavidin in Annexin V staining buffer in the presence of 5 μg/ml propidium iodide (PI), and analyzed by FACSAria or FACSCalibur (BD Biosciences). […] Aliquots (150 μl) were mixed with 150 μl HBSS containing 5 μg/ml fatty-acid free BSA (Sigma-Aldrich) and 500 nM Sytoxblue (Molecular Probes), and analyzed by FACSAria. […]

[2] = tested on: CpG sites of the hXkr8 gene promoter in PLB-985 cells; experiment: Bisulfite genomic sequencing of CpG sites between -239 and +7 of the hXkr8 gene; conditions: 0.5 μM DAC, day 7
Description: (§1) To treat human PLB-985 cells with 5-aza-2′-deoxycytidine (DAC, Sigma-Aldrich), 1.0×10^6 cells in 10 ml of RPMI containing 10% FCS were incubated with 0.5 μM DAC for up to 7 days. Since DAC is an unstable compound, the medium containing DAC was changed every 24 hours. After DAC treatment, the cells were divided into three portions: one portion for FACS to analyze the PtdSer exposure, one for real-time RT-PCR for Xkr8 gene expression, and one for the methylation-specific PCR analysis^67. For the bisulfite genomic sequencing, the DNA was modified with bisulfite using a kit (MethyEasy Xceed, Human Genetic Signatures). In brief, 3 μg DNA was denatured by incubation at 37° C. for 15 min in 0.3 M NaOH, and treated with sodium bisulfite according to the protocol provided by the supplier except that the incubation time was changed to 90 min. The modified DNA was denatured at 95° C. for 20 min, and amplified by PCR using primers specific for the treated DNA ([…] (SEQ ID NO; 20) and […] (SEQ ID NO; 21)). PCR was carried out with EpiTaq HS polymerase (Takara Bio) for 7-40 cycles, and the product was cloned in a pGEM-Teasy vector for sequencing.

[3] = tested on: Xkr8 mRNA in PLB-985 cells; experiment: Real-time RT-PCR of Xkr8 mRNA in DAC-treated PLB-985 cells
Description: as §1, with “sequencing. […]” for “sequencing.”
The specific mRNA was quantified at the point where the LightCycler System detected the upstroke of the exponential phase of PCR accumulation with the respective linearized plasmid DNA as reference.

`Nc1ncn([C@H]2C[C@H](O)[C@@H](CO)O2)c(=O)n1` [DAC, 5-aza-2′-deoxycytidine] was tested, and the “PtdSer exposure in response to UV irradiation” value [1] was “gained the ability to expose PtdSer”, the “Methylation status of the 23 CpG sites between -239 and +7” value [2] was “highly demethylated” and the “Change of Xkr8 mRNA level” value ([3]; 0.5 μM DAC for up to 7 days) was “gradually increased”. For the same compound, the “Xkr8 mRNA level relative to that in Namalwa cells” value ([3]; 0.5 μM DAC, day 7) was “about 91%”.

Reference: patent publication US9857357B2, “Method of screening modulator of XKR8” (KYOTO UNIVERSITY, priority 2012, dated 2018)
